In patent US11771707B2, “Pharmaceutical compositions and uses thereof” (SpineThera, priority 2016, dated 2023):

How the values were obtained:
[1] = brain; cited from earlier work
[2] = in vitro release in 1% C-TAB buffer at pH 3.5; type: physicochemical
Description: Without wishing to be bound by theory, pharmaceutical compositions of the type described herein are not expected to elicit any significant or appreciable degree of inflammatory response or cause necrosis. Histological examination may reveal the microspheres to be localized and agglomerated within the epidural space at the site of injection with no evidence of the presence of the injection vehicle after about 2 days. Contents of the treated epidural pocket can be recovered by dissection. It can be reasonably expected that dexamethasone acetate will be released continuously over approximately 45 days under in vitro conditions of 1% C-TAB buffer at pH 3.5, with <20% of the drug released in 1 day, 30-60% in 7 days, 60-85% in 28 days and not less than 85% in 45 days, with complete microsphere polymer degradation in about 16 weeks/112 days.

[3] = in vitro release of dexamethasone acetate from microspheres; type: physicochemical
Description: The microspheres, and compositions comprising those microspheres, of the various embodiments described herein are analyzed using USP methods known in the art to determine, among other things, the pH of the compositions, the in vitro release of API, and the impurities present. […] Without wishing to be bound by theory, it can be reasonably expected that dexamethasone acetate will release continuously over about 84 days in vitro, with about 20% of the drug released in 3 days, 50% in 25 days, and 90% in 60 days. It will be understood that the release profile may be adjusted by one or more of the following, including combinations: increasing or decreasing drug to polymer ratio; increasing or decreasing polymer molecular weight; increasing or decreasing particle size; increasing or decreasing polymer degradation time (by decreasing or increasing glycolic acid content); or increasing or decreasing hydrophilicity of microsphere surface.

For CC(=O)OCC(=O)[C@@]1(O)[C@H](C)C[C@H]2[C@@H]3CCC4=CC(=O)C=C[C@]4(C)[C@@]3(F)[C@@H](O)C[C@@]21C [dexamethasone acetate, 9 alpha-fluoro-11-beta, 17-alpha, 21-trihydroxy-16 alpha-methylpregna-1,4-diene-3,20-dione 21-acetate], which “anti-inflammatory effect and tissue water content” value [1] is on record?
The value was “anti-inflammatory effect in the brain without reducing tissue water content”.

And the “period of continuous release” value ([2]; 1% C-TAB buffer pH 3.5)?
The value was “approximately 45 days”.

And the drug released ([2]; 1% C-TAB buffer pH 3.5, in 1 day)?
The drug released was under 20%.

And the drug released ([2]; 1% C-TAB buffer pH 3.5, in 7 days)?
Its drug released is 30-60%.

What about the drug released ([2]; 1% C-TAB buffer pH 3.5, in 28 days) of the same compound?
Its drug released is 60-85%.

And the drug released ([2]; 1% C-TAB buffer pH 3.5, in 45 days)?
Its drug released is “not less than 85%”.

What about the “period of continuous release” value [3] of the same compound?
The value was “about 84 days”.

And the drug released ([3]; in 3 days)?
Its drug released is “about 20%”.

And the drug released ([3]; in 25 days)?
The drug released was about 50%.

And the drug released ([3]; in 60 days)?
Its drug released is about 90%.
